ChEMBL document CHEMBL1201862, “PubChem BioAssay data set” (2004)
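How tested: cells in 96-well plates exposed to compound for 48 hours at five concentrations. GI50 marks 50% less growth.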 The source made the active and inactive calls. No stated cut-off is given here; in the data, active = GI50 up to about 1.1 µM and inactive = higher. Where a SMILES comes first, the peptide text is derived from it. The star is where a group is joined. Boc = CC(C)(C)OC(=O)*

Key:
Assay in all cases: NCI anticancer screen, dose series, 48 h
SK-MEL-28 = system: SK-MEL-28
NCI-H226 = system: NCI-H226
Malme-3M = system: Malme-3M
HOP-92 = system: HOP-92
ACHN = system: ACHN
HCT-116 = system: HCT-116
M14 = system: M14
SF-268 = system: SF-268
HOP-62 = system: HOP-62
HCC 2998 = system: HCC 2998
SF-295 = system: SF-295
RPMI-8226 = system: RPMI-8226
HCT-15 = system: HCT-15
SNB-19 = system: SNB-19
SW-620 = system: SW-620
IGROV-1 = system: IGROV-1
K562 = system: K562
RXF 393 = system: RXF 393
UACC-257 = system: UACC-257

SMILES | GI50 (SK-MEL-28) | GI50 (NCI-H226) | GI50 (Malme-3M) | GI50 (HOP-92) | GI50 (ACHN) | GI50 (HCT-116) | GI50 (M14) | GI50 (SF-268) | GI50 (HOP-62) | GI50 (HCC 2998) | GI50 (SF-295) | GI50 (RPMI-8226) | GI50 (HCT-15) | GI50 (SNB-19) | GI50 (SW-620) | GI50 (IGROV-1) | GI50 (K562) | GI50 (RXF 393) | GI50 (UACC-257)
C=C1C(=O)O[C@@H]2C[C@@]3(C)[C@H](O)CCC(=C)[C@@H]3C[C@H]12 [ASPERILIN] | 7.59 µM (inactive) | 4.29 µM (inactive) | 3.11 µM (inactive) | 5.13 µM (inactive) | 14.4 µM (inactive) | 4.86 µM (inactive) | 3.31 µM (inactive) | 15.6 µM (inactive) | 17.1 µM (inactive) | 7.05 µM (inactive) | 14.1 µM (inactive) | 3.46 µM (inactive) | 11.3 µM | 18.7 µM (inactive) | 3.44 µM (inactive) | 20.5 µM (inactive) | 2.39 µM (inactive) | – | –
COc1ccc2c(c1)OCCC1=C2SCC2(C)CCN=C12 (stereo not drawn) | > 100 µM (inactive) | 35.6 µM (inactive) | – | – | – | > 100 µM (inactive) | > 100 µM (inactive) | > 100 µM (inactive) | > 100 µM (inactive) | > 10 µM (inactive) | > 100 µM (inactive) | > 100 µM (inactive) | – | > 100 µM (inactive) | > 100 µM (inactive) | > 100 µM (inactive) | 46.2 µM (inactive) | > 100 µM (inactive) | –
CCCc1cc(=O)oc2c3c(c4c(c12)OC(C)(C)CC4)O[C@@H](C)[C@H](C)[C@H]3O | 15.6 µM (inactive) | 15.2 µM (inactive) | 14.4 µM (inactive) | 13.6 µM (inactive) | – | 8.89 µM (inactive) | 11.8 µM (inactive) | 15.1 µM (inactive) | 14.9 µM (inactive) | 13.6 µM (inactive) | 13.5 µM (inactive) | 4.35 µM (inactive) | 11.2 µM | 14 µM (inactive) | 15 µM (inactive) | 16.1 µM (inactive) | 2.79 µM (inactive) | 11.3 µM (inactive) | 4.94 µM (inactive)
CC(=O)/C=C1\CC(=O)N(C)c2ccccc2N1 | > 100 µM (inactive) | > 100 µM (inactive) | > 100 µM (inactive) | > 100 µM (inactive) | – | > 100 µM (inactive) | > 100 µM (inactive) | > 100 µM (inactive) | > 100 µM (inactive) | > 100 µM (inactive) | > 100 µM (inactive) | – | – | > 100 µM (inactive) | > 100 µM (inactive) | > 100 µM (inactive) | > 100 µM (inactive) | > 100 µM (inactive) | –
C#CCN1C(=O)CN2C(Cl)(Cl)C2(c2ccccc2)c2cc(Cl)ccc21 (stereo not drawn) | > 100 µM (inactive) | 39.7 µM (inactive) | > 100 µM (inactive) | 61.8 µM (inactive) | 85.9 µM (inactive) | 42.2 µM (inactive) | 49.1 µM (inactive) | 82 µM (inactive) | 50 µM (inactive) | 31.2 µM (inactive) | 65.8 µM (inactive) | 70.5 µM (inactive) | 40.6 µM | – | 70.3 µM (inactive) | – | 49.8 µM (inactive) | > 100 µM (inactive) | 36.3 µM (inactive)
N#C/N=[N+](\[O-])c1ccc(C(=O)O)cc1 | 18.5 µM (inactive) | 19.2 µM (inactive) | – | 20.4 µM (inactive) | 18.4 µM (inactive) | – | 18.2 µM (inactive) | 19.4 µM (inactive) | 16.6 µM (inactive) | 25.5 µM (inactive) | > 100 µM (inactive) | 14.5 µM (inactive) | 16.2 µM | 16.3 µM (inactive) | 19.9 µM (inactive) | 43.5 µM (inactive) | 15.4 µM (inactive) | 16.1 µM (inactive) | 18 µM (inactive)
COc1cccc(/C=C2\C(=O)N(C(=O)Cc3ccccc3)N=C2C)c1 | > 100 µM (inactive) | > 100 µM (inactive) | > 100 µM (inactive) | – | > 100 µM (inactive) | > 100 µM (inactive) | > 100 µM (inactive) | > 100 µM (inactive) | > 100 µM (inactive) | > 100 µM (inactive) | > 100 µM (inactive) | > 100 µM (inactive) | > 100 µM | > 100 µM (inactive) | > 100 µM (inactive) | – | > 100 µM (inactive) | – | > 100 µM (inactive)
COC(=O)[C@H](Cc1ccc(O)cc1)NC(=O)[C@H](Cc1ccc(O)cc1)NC(=O)OC(C)(C)C (Boc-Tyr-Tyr-OMe) | – | > 100 µM (inactive) | > 100 µM (inactive) | – | > 100 µM (inactive) | > 100 µM (inactive) | > 100 µM (inactive) | > 100 µM (inactive) | > 100 µM (inactive) | 39.4 µM (inactive) | > 100 µM (inactive) | – | > 100 µM | > 100 µM (inactive) | – | 56.6 µM (inactive) | – | 49.7 µM (inactive) | > 100 µM (inactive)
Oc1cc(O)c2c(c1)O[C@H](c1ccc(O)c(O)c1)[C@@H](O)C2 [CIANIDANOL] | > 100 µM (inactive) | > 100 µM (inactive) | > 100 µM (inactive) | > 100 µM (inactive) | > 100 µM (inactive) | > 100 µM (inactive) | > 100 µM (inactive) | > 100 µM (inactive) | > 100 µM (inactive) | > 100 µM (inactive) | > 100 µM (inactive) | > 100 µM (inactive) | > 100 µM | > 100 µM (inactive) | > 100 µM (inactive) | > 100 µM (inactive) | > 100 µM (inactive) | – | > 100 µM (inactive)
CCC1=CCN(c2ccc(C)cc2)OC1c1ccc(OC)cc1 (stereo not drawn) | 50.2 µM (inactive) | > 100 µM (inactive) | 66.4 µM (inactive) | – | > 100 µM (inactive) | 59.6 µM (inactive) | 52.6 µM (inactive) | > 100 µM (inactive) | > 100 µM (inactive) | 70.5 µM (inactive) | 92.7 µM (inactive) | 43.3 µM (inactive) | 47 µM | > 100 µM (inactive) | > 100 µM (inactive) | > 100 µM (inactive) | 94.8 µM (inactive) | 69.7 µM (inactive) | 37 µM (inactive)
COP(C)(=O)/C(Cc1ccccc1)=N\O (stereo not drawn) | > 100 µM (inactive) | > 100 µM (inactive) | – | > 100 µM (inactive) | > 100 µM (inactive) | > 100 µM (inactive) | > 100 µM (inactive) | – | > 100 µM (inactive) | > 100 µM (inactive) | > 100 µM (inactive) | > 100 µM (inactive) | > 100 µM | > 100 µM (inactive) | > 100 µM (inactive) | > 100 µM (inactive) | > 100 µM (inactive) | – | > 100 µM (inactive)
CN1CN(c2ccccc2)C2(CCN(CCCC(=O)c3cccs3)CC2)C1=O | > 100 µM (inactive) | 34.5 µM (inactive) | 54.1 µM (inactive) | – | 40.2 µM (inactive) | 30.1 µM (inactive) | 95.5 µM (inactive) | 74.8 µM (inactive) | 19.3 µM (inactive) | 19.5 µM (inactive) | 33 µM (inactive) | 29.8 µM (inactive) | 34.7 µM | 47.5 µM (inactive) | 42.2 µM (inactive) | 41.3 µM (inactive) | 38.5 µM (inactive) | > 100 µM (inactive) | 29 µM (inactive)
